# Active and inactive are the calls of the source. The rule behind the calls is not given here.
# What was measured:
# [1] = target: T1, G-prodeshotein coupled receptor 4 (Homo sapiens, UniProt P46093); test: Antagonist activity at N-terminal HA-tagged GPR4 (unknown origin) expressed in HEK293 cells assessed as pH dependent cAMP response element-driven transcriptional activity ratio at 10 uM at pH 7.2 incubated for 6 hrs by dual luciferase reporter gene assay relative to untreated control; type: functional, cell-based
# Target sequence in this assay (P46093 whole entry, looked up): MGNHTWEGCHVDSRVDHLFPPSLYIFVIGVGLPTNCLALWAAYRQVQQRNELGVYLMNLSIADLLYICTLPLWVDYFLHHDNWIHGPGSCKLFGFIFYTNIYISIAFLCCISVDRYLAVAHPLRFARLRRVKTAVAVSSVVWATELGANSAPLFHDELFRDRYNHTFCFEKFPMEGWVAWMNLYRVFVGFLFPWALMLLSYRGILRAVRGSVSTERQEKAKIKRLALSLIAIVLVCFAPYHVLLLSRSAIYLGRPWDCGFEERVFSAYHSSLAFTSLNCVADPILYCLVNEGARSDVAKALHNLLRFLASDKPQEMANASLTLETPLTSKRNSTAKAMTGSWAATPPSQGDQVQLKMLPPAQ
# [2] = target: T1, G-prodeshotein coupled receptor 4; test: Antagonist activity at N-terminal HA-tagged GPR4 (unknown origin) expressed in HEK293 cells assessed as inhibition of pH dependent cAMP response element-driven transcriptional activity at pH 7.2 incubated for 6 hrs by dual luciferase reporter gene assay; type: functional, cell-based
# Target sequence in this assay (P46093 whole entry): as the sequence (P46093 whole entry, looked up) above
# [3] = target: T2, G-protein coupled receptor 65 (Homo sapiens, UniProt Q8IYL9); test: Antagonist activity at N-terminal HA-tagged TDAG8 receptor (unknown origin) expressed in HEK293 cells assessed as inhibition of pH dependent cAMP response element-driven transcriptional activity at >1 uM at pH 7.2 incubated for 6 hrs by dual luciferase reporter gene assay; type: functional, cell-based
# T2 sequence (Q8IYL9 whole entry): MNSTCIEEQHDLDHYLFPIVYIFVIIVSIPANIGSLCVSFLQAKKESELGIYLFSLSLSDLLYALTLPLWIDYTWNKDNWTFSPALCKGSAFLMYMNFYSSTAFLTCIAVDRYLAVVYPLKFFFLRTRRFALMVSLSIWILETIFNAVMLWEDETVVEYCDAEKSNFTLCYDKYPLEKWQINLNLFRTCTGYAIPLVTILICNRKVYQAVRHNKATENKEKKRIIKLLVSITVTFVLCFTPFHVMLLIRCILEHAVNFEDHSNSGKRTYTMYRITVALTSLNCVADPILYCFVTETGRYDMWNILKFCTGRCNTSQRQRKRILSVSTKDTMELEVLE
# [4] = target: T3, G-protein coupled receptor 68 (Homo sapiens, UniProt Q15743); test: Antagonist activity at N-terminal HA-tagged OGR1 (unknown origin) expressed in HEK293 cells assessed as inhibition of pH dependent nuclear factor of activated T-cell activity at >1 uM at pH 7.2 incubated for 6 hrs by dual luciferase reporter gene assay; type: cell-based
# T3 sequence (Q15743 whole entry): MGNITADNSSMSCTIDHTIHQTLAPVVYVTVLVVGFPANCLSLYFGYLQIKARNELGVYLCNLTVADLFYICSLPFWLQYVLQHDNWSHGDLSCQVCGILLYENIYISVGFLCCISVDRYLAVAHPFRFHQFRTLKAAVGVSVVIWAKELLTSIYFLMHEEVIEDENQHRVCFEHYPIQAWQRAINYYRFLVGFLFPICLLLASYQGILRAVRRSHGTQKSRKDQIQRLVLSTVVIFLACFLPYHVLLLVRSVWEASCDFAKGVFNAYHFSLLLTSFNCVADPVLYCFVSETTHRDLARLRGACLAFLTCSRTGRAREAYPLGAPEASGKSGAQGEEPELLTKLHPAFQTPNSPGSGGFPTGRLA
# [5] = target: T2, G-protein coupled receptor 65; test: Antagonist activity at N-terminal HA-tagged TDAG8 receptor (unknown origin) expressed in HEK293 cells assessed as inhibition of pH dependent cAMP response element-driven transcriptional activity at pH 7.2 incubated for 6 hrs by dual luciferase reporter gene assay; type: functional, cell-based
# [6] = target: T3, G-protein coupled receptor 68; test: Antagonist activity at N-terminal HA-tagged OGR1 (unknown origin) expressed in HEK293 cells assessed as inhibition of pH dependent nuclear factor of activated T-cell activity at pH 7.2 incubated for 6 hrs by dual luciferase reporter gene assay; type: cell-based
# Mus musculus [7] = test: (§1) Increase in survival of C57BL/6J mouse permanent left anterior descending coronary artery ligation model of myocardial infarction assessed as survival rate at 6.7 mg/kg/day, ip bid dosed from 1 day before to 7 day after myocardial infarction without operation day measured up to 28 days (reference value: 14.3 %); type: functional
# Mus musculus [8] = test: as §1, with “20” for “6.7”; type: functional
Structure (SMILES),Ratio [1],IC50 [2] [nM],other results
Cc1nccn1Cc1ccc2c(c1)CCc1ccccc1N2,1.24,,
c1ccc2c(c1)CCc1cc(Cn3cnc4ccccc43)ccc1N2,0.52,> 10000,
c1ccc2c(c1)CCc1cc(Cn3c4ccccc4c4ccccc43)ccc1N2,1.03,,
CCc1nccn1Cc1ccc2c(c1)CCc1ccccc1N2,1.22,,
c1ccc2c(c1)CCc1cc(Cn3ccnc3)ccc1N2,1.11,,
Cc1nc2ccccc2n1Cc1ccc2c(c1)CCc1ccccc1N2,0.57,,
CCc1nc2c(C)cc(C)nc2n1Cc1ccccc1,0.72,,
CCc1nc2ccccc2n1Cc1ccc2c(c1)CCc1ccccc1N2,0.44,> 10000,
CCc1nc2c(C)cc(C)nc2n1Cc1ccc2c(c1)CCc1cc(CN3CCCCC3)ccc1N2,0.39,67,IC50 [5]: > 10000 nM; IC50 [6]: > 10000 nM; survival at 6.7 mg/kg/day (Mus musculus [7]): 100%; survival at 20 mg/kg/day (Mus musculus [8]): 62.5%
c1ccc2c(c1)CCc1cc(Cn3ccc4ccccc43)ccc1N2,0.44,,

# Now from value to molecule, other results behind:
Ratio [1],IC50 [2] [nM],Structure (SMILES),other results
0.41,,CCc1nc2c(C)cc(C)nc2n1Cc1ccc2c(c1)CCc1cc(CN3CCOCC3)ccc1N2,
0.54,> 10000,CCc1nc2c(C)cc(C)nc2n1Cc1ccc(Nc2ccccc2)cc1,
0.22,900,CCc1nc2c(C)cc(C)nc2n1Cc1ccc2c(c1)CCc1ccccc1N2,
0.36,,CCc1nc2c(C)cc(C)nc2n1Cc1ccc2c(c1)C=Cc1ccccc1N2,
0.42,130,CCc1nc2c(C)cc(C)nc2n1Cc1ccc2c(c1)CCc1cc(CN3CCN(C)CC3)ccc1N2,inhibition [3]: Active; inhibition [4]: Active
0.52,,CCc1nc2c(C)cc(C)nc2n1Cc1ccc2ccccc2c1,
0.38,910,CCc1nc2c(C)cc(C)nc2n1Cc1ccc2c(c1)Sc1ccccc1N2,
0.4,,CCc1nc2c(C)cc(C)nc2n1Cc1ccc2c(c1)CCc1cc(CN3CCCC3)ccc1N2,

# Source: ChEMBL document CHEMBL3808277, “Identification of a Potent and Selective GPR4 Antagonist as a Drug Lead for the Treatment of Myocardial Infarction” (ACS Med Chem Lett, 2016)
